The values that follow come from US20140066449A1, “DIPYRIDINIUM DERIVATIVES” (SABREPHARM LIMITED, priority 2011, published 2014).

Several values for one entry are separate records, joined by “and”; a condition that tells them apart may be missing. Equal values may be shown once. Read-outs that look alike come from different tables or passages of the source.

The test system of data set [1] is H460 non-small cell lung adenocarcinoma. The data set can be described thus: MTT in vitro cytotoxicity, H460. The class given is cell-based. Particulars: H460, 10 day exposure. The protocol: (§1) All were stored in the dark at 4° C. An accurately weighed amount of each compound was dissolved in DMSO and Hank's Balanced Salt Solution (Sigma) according to Table 2 below:
(§2) Further dilutions were made in complete RPMI1640 cell culture medium (RPMI1640 cell culture medium supplemented with 10% foetal bovine serum, 1 mM L-glutamine, and 2 mM sodium pyruvate (all from Sigma)).
(§3) H460 non-small cell lung adenocarcinoma, HT-29 colon adenocarcinoma and MCF-7 breast adenocarcinoma (ECACC, Salisbury, Wiltshire) were used for analysis. Cells were cultured in complete RPMI1640 cell culture medium, and maintained as monolayer cultures at 37° C. in a humidified 5% CO2 environment.
(§4) Tumour cell growth inhibition was assessed using the MTT assay with a standard 96 hour plus an extended 10 day incubation. For the 96 hour assay 1×10^4 cells were inoculated into each well of a 96-well plate and incubated overnight at 37° C. in a humidified atmosphere containing 5% CO2 to give time to adhere to the wells and form a monolayer. For the 10 day incubation, 1×102 (H460 and HT-29) and 1×103 (MCF-7) cells were inoculated. The next day, culture medium was removed from each well and replaced with cell culture media for the untreated control, or media containing compound, and the plates then incubated for a further 96 hours or 10 days. […] After 96 hours or 10 days culture medium was removed and 200 μL of 0.5 mgmL-1 MTT solution (Sigma) in complete medium added to each well. Following a further 4 hours incubation, the solution was removed from each well and 150 μL of DMSO added to solubilise the formazan crystals resulting from MTT conversion. Absorbance values for the resulting solutions were read at 550 nm on a Multiskan Ex microplate reader (Thermo Fisher, Loughborough, UK) and cell survival calculated as the absorbance of treated cells divided by the control. Results are expressed in terms of IC50 values (i.e. concentration of compound required to kill 50% of cells), which were determined manually in Microsoft Excel from plots of concentration versus percentage cell survival, and all experiments were performed in triplicate.

Data set [2] relates to HT-29 colon adenocarcinoma. The data set can be described thus: MTT in vitro cytotoxicity, HT-29. The class given is cell-based. Particulars: HT-29, 10 day exposure. On the procedure:
as §1, §2, §3, §4

Data set [3] has as its system MCF-7 breast adenocarcinoma. The data set can be described thus: MTT in vitro cytotoxicity, MCF-7. The class given is cell-based, human. Particulars: MCF-7, 10 day exposure. The protocol:
as §1, §2, §3, §4

The subject of data set [4] is MCF-7 Human Breastadenocarclnoma Xenograft. The data set is described as follows: MCF-7 xenograft model study. The class given is in vivo, mice. From the text: Evaluation of the Efficacy of the Compounds C & D (Examples 2 & 3 Respectively) in the MCF-7 Human Breastadenocarclnoma Xenograft Model
Data set [5] can be described thus: Redox potential study, square wave voltammetry. Particulars: 0.1 mol dm-3 LiNTf2, 20° C., first scan. The class given is physicochemical. On the procedure:
BioAnalytical Systems CV50W potentiostat (from BAS Inc., USA)
Square wave voltammetry (4 mV step, 25 mV pulse, 10 Hz SW frequency)
3 mm diameter glassy carbon working electrode (from BAS)
3 mm diameter glassy carbon counter electrode (from BAS)
Saturated calomel reference electrode (SCE, from Sycopel Scientific Ltd., UK)
0.1 mol dm-3 lithium bis(trifluoromethanesulphonyl)imide ((LiNTf2)CAS 90076-65-6, from 3M)
Voltammograms were recorded from 0.5 V to −1.2 V in deoxygenated solutions of the Compounds.

For data set [6], the system named is human mitochondria isolated from HEK293 cells. The data set is described as follows: ROS production in isolated mitochondria (DCFDA). The class given is biochemical. Particulars: isolated HEK293 mitochondria, 100 μM, 120 mins. The protocol: The ability of test compounds to impact ROS production in isolated mitochondria after 120 mins exposure was assessed.
Mitochondria were isolated from harvested human embryonic kidney (HEK293) cells (20×10^6) using a commercial kit (Thermo Scientific) before re-suspension in PBS to a final volume of 800 μL. […] Independent experiments (each assessing the impact of all four compounds along with a positive [AAPH; 5.0 mM] and vehicle control) were repeated three times.

The subject of the next data set is A2780 [ovarian]. The data set is described as follows: Combination with cisplatin, A2780. The class given is cell-based.
Data set [7] concerns A2780/cis [cisplatin ovarian resistant line]. The data set can be described thus: Combination with cisplatin, A2780/cis. The class given is cell-based.
In another data set the test system is M 14 [melanoma]. The data set is described as follows: Combination with cisplatin, M14. In kind it is cell-based.
For a further data set, the system named is MCF7 [Breast]. The data set can be described thus: Combination with cisplatin, MCF-7. The class given is cell-based, human.
[8] abbreviates: highest concentration 30 μM, read-out: IC50 Run 1.
The mark [9] stands for this setting: highest concentration 100 μM, read-out: IC50 Run 2.
The mark [10] stands for this setting: highest concentration 100 μM, read-out: IC50 Run 3.
Where [11] appears, read: 200 mg/kg, i.v., d 0, 2, 4, 7, 9 & 11.
The mark [12] stands for this setting: mean of runs, read-out: IC50 Mean.
[13] abbreviates: cisplatin 1 μM alone (compound 0 μM).
[14] abbreviates: cisplatin 3 μM alone (compound 0 μM).
[15] abbreviates: cisplatin 10 μM alone (compound 0 μM).

The term IC50 denotes the concentration that inhibits the measured activity by half. With “3-((2-(2-methoxy-ethoxy)(ethoxy)n)methyl)-6,7-dihydrodipyrido[1,2-a:2′,1′-c]pyrazine-5,8-diium bistrifluoromethanesulfonate [Compound C]”, the IC50 in data set [1] (setting [8]) was above 30000 nM; in data set [1] (setting [9]) it was above 100000 nM; in data set [1] (setting [10]), above 100000 nM; in data set [2] (setting [8]) it was above 30000 nM; in data set [2] (setting [9]), 82000 nM; in data set [2] (setting [10]) it was 78000 nM. In addition, the IC50 in data set [3] (setting [8]) is above 30000 nM; in data set [3] (setting [9]) it was 97000 nM; in [3] (setting [10]) it was above 100000 nM. Further, the “Growth delay” value in data set [4] (setting [11]) is given as 3.1 days. Besides, in data set [4] (setting [11]), the “Maximum % weight loss” value is reported as 0%. In addition, the “Reduction potential 1” value in [5] is listed as −0.470 V vs. SCE. Also, the “Reduction potential 2” value in data set [5] is −0.803 V vs. SCE.

In the case of “3-(((2-(2-methoxyethoxy)(ethoxy)n)ethyl) hexane-1,6-diyldicarbamate)methyl)-6,7-dihydrodipyrido[1,2-a:2′,1′-c]pyrazine-5,8-diium bistrifluoromethanesulfonate [Compound D]”, the IC50 was above 30000 nM in data set [1] (setting [8]); above 100000 nM in data set [1] (setting [9]); above 100000 nM in data set [1] (setting [10]); above 30000 nM in data set [2] (setting [8]); above 100000 nM in [2] (setting [9]); 81000 nM in data set [2] (setting [10]). For the same compound, the results for the IC50 in [3] (setting [8]), in data set [3] (setting [9]) and in data set [3] (setting [10]) were above 30000 nM, 72000 nM and above 100000 nM, respectively. Besides, in data set [4] (setting [11]), the “Growth delay” value came out at 2.4 days. In addition, the “Maximum % weight loss” value in data set [4] (setting [11]) is on record as 0%. Also, the “Reduction potential 1” value in data set [5] is −0.423 V vs. SCE. The “Reduction potential 2” value in [5] is listed as −0.828 V vs. SCE.

Turning to “3-(((2-(2-methoxyethoxy)(ethoxy)n)ethyl) hexane-1,6-diyldicarbamate)methyl)-6,7-dihydrodipyrido[1,2-a:2′,1′-c]pyrazine-5,8-diium bistrifluoromethanesulfonate [G]”, the “rank order of efficacy (ROS production)” value in [6] is “F>G>B>A”. Besides, the “ROS production relative to vehicle treatment” value in [6] (room temperature) was “robustly increased ROS production”.

Take `N.N.[Cl][Pt][Cl]` [Cisplatin]: the IC50 in data set [1] (setting [8]) was 1100 nM; in [1] (setting [9]), 1000 nM; in data set [1] (setting [10]), 900 nM; in data set [1] (setting [12]), 1000 nM; in data set [2] (setting [8]) it was 2400 nM; in data set [2] (setting [9]), 1300 nM. The IC50 in data set [2] (setting [10]) was 700 nM; in [2] (setting [12]), 1500 nM; in data set [3] (setting [8]), 2300 nM; in data set [3] (setting [9]) it was 2300 nM; in [3] (setting [10]) it was 2500 nM; in data set [3] (setting [12]), 2400 nM. Also, the “% cell survival” value in the data set with A2780 [ovarian] (setting [13]) was 49.5% and 52.5%; in the data set with A2780 [ovarian] (setting [14]) it was 19.6% and 19.2%; with A2780 [ovarian] (setting [15]), 4.8% and 5.8%; in data set [7] (setting [15]), 36.3% and 39.7%; in data set [7] (cisplatin 30 μM alone (compound 0 μM)), 8.7% and 8.6%; in data set [7] (cisplatin 100 μM alone (compound 0 μM)) it was −0.5% and 1.1%. Moreover, the “% cell survival” value is 85.6% and 97.7% in the data set with M 14 [melanoma] (setting [13]); 77.1% and 84.8% in the data set with M 14 [melanoma] (setting [14]); 58.3% and 63.3% with M 14 [melanoma] (setting [15]); 107.4% and 110.8% with MCF7 [Breast] (cisplatin 0.1 μM alone (compound 0 μM)); 76% and 91.3% in the data set with MCF7 [Breast] (cisplatin 0.3 μM alone (compound 0 μM)); 72.4% and 70.3% with MCF7 [Breast] (setting [13]). The “Growth delay” value in data set [4] (10 mg/kg, i.p., d 0) is on record as 5.1 days. Also, the “Maximum % weight loss” value in data set [4] (10 mg/kg, i.p., d 0) was 8.0%. Also, the “weight loss of tumour bearing mice” value in data set [4] (xenograft studies, FIG. 6) is on record as “significant weight loss”.
